We go through 16 molecules from patent publication US5504212A, “Inhibitors of farnesyl-protein transferase” (Merck & Co., Inc., priority 1992, dated 1996).

The structures appear in SMILES notation.

For the first assay, the target named is recombinant human farnesyl transferase (Homo sapiens, UniProt P49354+P49356). The experiment in a line: In vitro inhibition of ras farnesyl transferase. The format is biochemical. Particulars: read-out: ID50, Inhibition of RAS farnesylation (concentration which gives 50% inhibition of FTase). As for the experimental part: In vitro inhibition of ras farnesyl transferase
The assay was conducted as described in Pompliano, et. al., Biochemistry 31, 3800 (1992) with the exception of utilizing recombinant human farnesyl transferase in place of the partially purified bovine enzyme described therein.
Take `CC[C@H](C)[C@@H](/C=C/[C@H](C(=O)N[C@@H](CCO)C(=O)O)C(C)C)NC[C@@H](N)CS` [5(S)-2(R)-amino-3-mercaptopropyl-amino!-6(S)-methyl-2(R)-i-propyl-3,4-E-octenoyl-homoserine]: the IC50 was 3.5 nM.

Turning to `CCCC[C@H](/C=C/[C@@H](NC[C@@H](N)CS)[C@@H](C)CC)C(=O)N[C@@H](CCO)C(=O)O` [5(S)-2(R)-amino-3-mercaptopropyl-amino!-6(S)-methyl-2(R)-n-butyl-3,4-E-octenoyl-homoserine], the IC50 was determined as 1.5 nM. Turning to `CCCC[C@H](/C=C/[C@@H](NC[C@@H](N)CS)[C@@H](C)CC)C(=O)N[C@@H](CCSC)C(=O)O` [5(S)-2(R)-amino-3-mercaptopropyl-amino!-6(S)-methyl-2(R)-n-butyl-3,4-E-octenoyl-methionine], the IC50 worked out at 2.5 nM. `CC[C@H](C)[C@@H](/C=C/[C@@H](Cc1ccccc1)C(=O)N[C@@H](CCSC)C(=O)O)NC[C@@H](N)CS` [5(S)-2(R)-amino-3-mercaptopropylamino!-6(S)-methyl-2(R)-benzyl-3,4-E-octenoyl-methionine]: the IC50 is 1.9 nM. With `CC[C@H](C)[C@@H](/C=C/[C@H](C(=O)N[C@@H](CCSC)C(=O)O)C(C)C)NC[C@@H](N)CS` [5(S)-2(R)-amino-3-mercaptopropylamino!-6(S)-methyl-2(R)-i-propyl-3,4-E-octenoyl-methionine], the IC50 stood at 20 nM. As for `CCC[C@H](/C=C/[C@@H](NC[C@@H](N)CS)[C@@H](C)CC)C(=O)N[C@@H](CCO)C(=O)O` [5(S)-2(R)-amino-3-mercaptopropylamino!-6(S)-methyl-2(R)-n-propyl-3,4-E-octenoyl-homoserine], the IC50 is 4 nM.

`CC(C)[C@H](/C=C/[C@@H](NC[C@@H](N)CS)C(C)C)C(=O)N[C@@H](CCO)C(=O)O` [5(S)-2(R)-amino-3-mercaptopropylamino!-6-methyl-2(R)-i-propyl-3,4-E-heptenoyl-homoserine]: the IC50 stood at 5 nM.

The next assay has as its system Ras farnesylation in the v-ras cell line. The experiment in a line: In vivo ras farnesylation assay (v-ras cell line). The format is cell-based. Particulars: v-ras cells; 4 h pretreatment at 37° C., then 20 h labelling; read-out: IC50, Inhibition of Ras Farnesylation in the v-ras cell line. The procedure:
In vivo ras farnesylation assay
The cell line used in this assay was the v-ras line, which expressed vital Ha-ras p21. The assay was performed essentially as described in DeClue, J. E. et. al., Cancer Research 51, 712-717, (1991). Cells in 10 cm dishes at 50-75% confluency were treated with the test compound (final concentration of solvent, methanol or dimethyl sulfoxide, was 0.1%). After 4 hours at 37° C., the cells were labelled in 3 ml methionine-free DMEM supplemeted with 10% regular DMEM, 2% fetal bovine serum and 400 μCi ^35 S!methionine (1000 Ci/mmol). After an additional 20 hours, the cells were lysed in 1 ml lysis buffer (1% NP40/20 mMHEPES, pH 7.5/5 mM MgCl2 /1 mM DTT/10 μg/ml aprotinen/2 μg/ml leupeptin/2 μg/ml antipain/0.5 mM PMSF) and the lysates cleared by centrifugation at 100,000×g for 45 min. Aliqouts of lysates containing equal numbers of acid-precipitable counts were bought to 1 ml with IP buffer (lysis buffer lacking DTT) and immunoprecipitated with the ras-specific monoclonal antibody Y13-259 (Furth, M. E. et. al., J. Virol. 43, 294-304, (1982)). Following a 2 hour antibody incubation at 4° C., 200 μl of a 25% suspension of protein A-Sepharose coated with rabbit anti rat IgG was added for 45 min. The immunoprecipitates were washed four times with IP was buffer ([…] HEPES, pH 7.5/1 mM EDTA/ 1% Triton X-100.0.5% deoxycholate/0.1%/SDS/0.1M NaCl) boiled in SDS-PAGE sample buffer and loaded on 13% acrylamide gels. When the dye front reached the bottom, the gel was fixed, soaked in Enlightening, dried and autoradiographed. The intensities of the bands corresponding to farnesylated and nonfarnesylated ras proteins were compared to determine the percent inhibition of farnesyl transfer to protein.
Turning to `CC[C@H](C)[C@@H](/C=C/[C@@H](Cc1ccccc1)C(=O)N[C@H]1CCOC1=O)NC[C@@H](N)CS` [5(S)-2(R)-amino-3-mercaptopropylamino!-6(S)-methyl-2(R)-benzyl-3,4-E-octenoyl-homoserine lactone], the IC50 was in the range of 5000 to 10000 nM. The same measure, in the same setting: with `CC[C@H](C)[C@@H](/C=C/[C@@H](Cc1ccccc1)C(=O)N[C@@H](CCSC)C(=O)OC)NC[C@@H](N)CS` [5(S)-2(R)-amino-3-mercaptopropylamino!-6(S)-methyl-2(R)-benzyl-3,4-E-octenoyl-methionine, methyl ester] the figure was 1000 nM.

In the case of `CC[C@H](C)[C@@H](/C=C/[C@H](C(=O)N[C@H]1CCOC1=O)C(C)C)NC[C@@H](N)CS` [5(S)-2(R)-amino-3-mercaptopropylamino!-6(S)-methyl-2(R)-i-propyl-3,4-E-octenoyl-homoserine lactone], the IC50 lay within 1000 to 2500 nM. Still for that read-out and setting: with `CC[C@H](C)[C@@H](/C=C/[C@H](C(=O)N[C@@H](CCSC)C(=O)OC)C(C)C)NC[C@@H](N)CS` [5(S)-2(R)-amino-3-mercaptopropylamino!-6(S)-methyl-2(R)-i-propyl-3,4-E-octenoyl-methionine, methyl ester] the figure was 100 nM; with `CCCC[C@H](/C=C/[C@@H](NC[C@@H](N)CS)[C@@H](C)CC)C(=O)N[C@@H](CCSC)C(=O)OC` [5(S)-2(R)-amino-3-mercaptopropylamino!-6(S)-methyl-2(R)-n-butyl-3,4-E-octenoyl-methionine, methyl ester], 1000 nM.

For the molecule `CCC[C@H](/C=C/[C@@H](NC[C@@H](N)CS)[C@@H](C)CC)C(=O)N[C@H]1CCOC1=O` [5(S)-2(R)-amino-3-mercaptopropylamino!-6(S)-methyl-2(R)-n-propyl-3,4-E-octenoyl-homoserine lactone], the IC50 amounted to 5000 nM. The same measure, in the same setting: the same measure for `CC(C)[C@H](/C=C/[C@@H](NC[C@@H](N)CS)C(C)C)C(=O)N[C@H]1CCOC1=O` [5(S)-2(R)-amino-3-mercaptopropylamino!-6-methyl-2(R)-i-propyl-3,4-E-heptenoyl-homoserine lactone]: 1000 nM.

In a further assay the test system is EMG-CoA reductase.
Assay: not given
Particulars: cited from earlier work.
Consider `CC[C@H](C)C(=O)O[C@H]1CCC=C2C=C[C@H](C)[C@H](CC[C@@H]3C[C@@H](O)CC(=O)O3)[C@H]21` [compactin], for which the “inhibition of EMG-CoA reductase” value is “inhibit EMG-CoA reductase”.

In the case of `CC[C@H](C)C(=O)O[C@H]1C[C@@H](C)C=C2C=C[C@H](C)[C@H](CC[C@@H]3C[C@@H](O)CC(=O)O3)[C@H]21` [lovastatin], the “inhibition of EMG-CoA reductase” value was “inhibit EMG-CoA reductase”.
